The results in this text go back to US10196436B2, “Inhibitors of the fibroblast growth factor receptor” (BLUEPRINT MEDICINES CORPORATION, priority 2012, dated 2019).

Assay [1] relates to MDA-MB-453 cells, which harbor an activating FGFR4 mutation. Briefly: Cellular potency: phosphorylation of Erk in MDA-MB-453 cells (immunoblot). As to conditions: Homo sapiens, MDA-MB-453, 1 h, read-out: Potency (pErk IC50). Background: In western blotting, separated proteins are transferred to a membrane and probed.
Experimental: Dose response in MDA-MB-453 cells, which harbor an activating FGFR4 mutation, was measured as follows. Briefly, MDA-MB-453 cells were seeded at 2.5×10^6 cells/6 well, and starved overnight. Compounds were added at varying concentrations (3000, 1000, 300, 100, and 30 nM) for 1 hour. Samples were collected and lysed for immunoblot analysis. The phosphorylation of Erk was measured and the average pErk value of three replicates was plotted with three parameter dose-response (inhibition) curve fit using Prism GraphPad software, which was used to determine the IC50 values.
The next assay deals with wild type FGFR-4 (Homo sapiens (Human), UniProt P22455). As to the kind of experiment: FGFR-4 wild type assay at Km (Caliper electrophoretic mobility shift). In kind it is biochemical. To be noted: for IC50: read-out: FGFR4 IC50; for Ratio FGFR1/FGFR4: [IC50 for FGFR1]/[IC50 for FGFR4]. On the procedure:
(§1) In order to assess the activity of chemical compounds against the relevant kinase of interest, the Caliper LifeSciences electrophoretic mobility shift technology platform is utilized. Fluorescently labeled substrate peptide is incubated in the presence dosed levels of compounds, a set concentration of kinase and of ATP, so that a reflective proportion of the peptide is phosphorylated. At the end of the reaction, the mix of phosphorylated (product) and non-phosphorylated (substrate) peptides are passed through the microfluidic system of the Caliper LabChip® EZ Reader II, under an applied potential difference. The presence of the phosphate group on the product peptide provides a difference in mass and charge between the product peptide and the substrate peptide, resulting in a separation of the substrate and product pools in the sample. As the pools pass the LEDS within the instrument, these pools are detected and resolved as separate peaks. The ratio between these peaks therefore reflects the activity of the chemical matter at that concentration in that well, under those conditions.
The reaction was stopped by the addition of 70 ul of Stop buffer (100 mM HEPES pH 7.5, 0.015% Brij 35, 35 mM EDTA and 0.2% of Coating Reagent 3 (Caliper Lifesciences)). The plate was then read on a Caliper LabChip® EZ Reader II (protocol settings: −1.9 psi, upstream voltage −700, downstream voltage −3000, post sample sip 35 s).

Another assay deals with wild type FGFR-1 (Homo sapiens (Human), UniProt P11362). Briefly: FGFR-1 wild type assay at Km (Caliper electrophoretic mobility shift). In kind it is biochemical. As to conditions: 400 uM ATP, 90 minutes, 25 C; read-out: FGFR1 IC50. Here is the method: as §1
The reaction was stopped by the addition of 70 ul of Stop buffer (100 mM HEPES pH 7.5, 0.015% Brij 35, 35 mM EDTA and 0.2% of Coating Reagent 3 (Caliper Lifesciences)). The plate was then read on a Caliper EZReader 2 (protocol settings: −1.9 psi, upstream voltage −700, downstream voltage −3000, post sample sip 35 s).

Structures are written as SMILES. Like-named read-outs stand apart in the source and are kept apart here. Where only a bound is given, the exact number is not on record here.

Chain of wild type FGFR-1 (P11362 22-822): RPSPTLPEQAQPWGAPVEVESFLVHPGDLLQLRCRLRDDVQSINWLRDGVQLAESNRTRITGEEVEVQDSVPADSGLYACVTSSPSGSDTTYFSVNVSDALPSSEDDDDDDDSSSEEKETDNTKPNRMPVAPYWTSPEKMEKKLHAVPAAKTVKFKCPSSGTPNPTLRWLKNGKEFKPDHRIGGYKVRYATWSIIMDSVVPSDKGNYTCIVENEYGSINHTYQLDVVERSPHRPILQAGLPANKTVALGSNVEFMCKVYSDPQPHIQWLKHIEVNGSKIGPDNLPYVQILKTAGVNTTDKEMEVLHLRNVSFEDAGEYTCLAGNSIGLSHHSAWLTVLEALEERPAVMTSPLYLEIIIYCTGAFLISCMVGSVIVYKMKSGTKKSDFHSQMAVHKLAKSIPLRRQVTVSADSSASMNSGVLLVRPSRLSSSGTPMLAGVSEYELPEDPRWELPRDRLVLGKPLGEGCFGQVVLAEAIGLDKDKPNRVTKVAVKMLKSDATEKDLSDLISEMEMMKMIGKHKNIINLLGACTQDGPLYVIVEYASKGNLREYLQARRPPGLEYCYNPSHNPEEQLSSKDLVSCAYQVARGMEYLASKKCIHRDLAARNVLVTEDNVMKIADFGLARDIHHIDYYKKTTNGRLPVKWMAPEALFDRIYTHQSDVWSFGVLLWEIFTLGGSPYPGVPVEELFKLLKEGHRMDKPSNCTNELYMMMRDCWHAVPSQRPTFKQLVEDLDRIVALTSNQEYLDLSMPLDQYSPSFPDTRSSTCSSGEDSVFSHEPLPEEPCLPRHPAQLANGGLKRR
Chain of wild type FGFR-4 (P22455 22-802): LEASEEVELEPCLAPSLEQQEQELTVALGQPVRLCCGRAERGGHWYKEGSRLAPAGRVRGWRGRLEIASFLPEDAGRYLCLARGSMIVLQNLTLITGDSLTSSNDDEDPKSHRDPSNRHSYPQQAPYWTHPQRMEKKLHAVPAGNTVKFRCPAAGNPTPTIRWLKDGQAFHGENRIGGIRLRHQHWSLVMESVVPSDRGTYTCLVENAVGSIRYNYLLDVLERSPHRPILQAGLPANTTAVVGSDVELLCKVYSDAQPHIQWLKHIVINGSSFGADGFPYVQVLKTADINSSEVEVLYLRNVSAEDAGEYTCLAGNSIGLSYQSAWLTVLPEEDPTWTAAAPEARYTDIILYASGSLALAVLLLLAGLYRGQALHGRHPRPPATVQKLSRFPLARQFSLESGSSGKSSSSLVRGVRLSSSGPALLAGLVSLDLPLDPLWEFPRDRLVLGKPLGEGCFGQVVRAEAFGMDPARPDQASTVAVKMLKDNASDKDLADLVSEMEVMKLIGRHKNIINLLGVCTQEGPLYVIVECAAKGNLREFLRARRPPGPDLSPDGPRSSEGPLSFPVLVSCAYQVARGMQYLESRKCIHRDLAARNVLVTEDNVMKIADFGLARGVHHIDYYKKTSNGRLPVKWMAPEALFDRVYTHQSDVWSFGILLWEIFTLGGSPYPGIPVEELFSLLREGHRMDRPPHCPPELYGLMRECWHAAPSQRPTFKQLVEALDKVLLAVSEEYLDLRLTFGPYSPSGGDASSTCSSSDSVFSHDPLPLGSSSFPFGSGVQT

`C=CC(=O)Nc1cc(N2CCOCC2)cc(C)c1Nc1ncc2cc(-c3c(Cl)c(OC)cc(OC)c3Cl)ccc2n1` [COMPOUND 53]: the half-inhibitory concentration (IC50) (in general, the concentration that inhibits the measured activity by half) is 0.001 to 0.01 µM in assay [1] and less than 0.01 µM at wild type FGFR-4 (400 uM ATP, 90 minutes, 25 C). Also, at wild type FGFR-4, the “Ratio FGFR1/FGFR4” value is “C (the ratio is ≥100 and <200)”.
For `C=CC(=O)Nc1cc(F)cc(F)c1Nc1ncc2cc(-c3c(Cl)c(OC)cc(OC)c3Cl)ccc2n1` [COMPOUND 36], at wild type FGFR-4, the “Ratio FGFR1/FGFR4” value was “B (the ratio is ≥200 and <500)”. Also, the IC50 at wild type FGFR-1 is greater than 1 µM.
As to `C=CC(=O)Nc1cccc(C)c1Nc1ncc2cc(-c3c(Cl)ccc(OC)c3F)ccc2n1` [COMPOUND 17A], the “Ratio FGFR1/FGFR4” value on wild type FGFR-4 was “E (the ratio is >10 and <50)”. The IC50 on wild type FGFR-1 was greater than 1 µM.
Turning to `C=CC(=O)Nc1ccccc1Nc1cc2c(cn1)cc(-c1cc(OC)cc(OC)c1)c(=O)n2C` [COMPOUND 15], at wild type FGFR-4, the “Ratio FGFR1/FGFR4” value is “B (the ratio is ≥200 and <500)”. The concentration for half-maximal inhibition (IC50) at wild type FGFR-1 was greater than 1 µM.
As for `C=CC(=O)Nc1ccccc1Nc1cc2c(cn1)cc(-c1c(Cl)c(OC)cc(OC)c1Cl)c(=O)n2C` [COMPOUND 31], the IC50 in assay [1] was less than 0.001 µM; at wild type FGFR-4 (400 uM ATP, 90 minutes, 25 C), less than 0.01 µM. Also, at wild type FGFR-4, the “Ratio FGFR1/FGFR4” value is “B (the ratio is ≥200 and <500)”.
With `C=CC(=O)Nc1cccc(C)c1Nc1ncc2cc(-c3c(Cl)cccc3Cl)c(=O)n(C)c2n1` [COMPOUND 22], the “Ratio FGFR1/FGFR4” value on wild type FGFR-4 was “B (the ratio is ≥200 and <500)”. Besides, the IC50 at wild type FGFR-1 was greater than 1 µM.
Take `C=CC(=O)Nc1cccc(C)c1Nc1ncc2cc(-c3cc(OC)cc(OC)c3)cnc2n1` [COMPOUND 10, N-(2-((6-(3,5-dimethoxyphenyl)pyrido[2,3-d]pyrimidin-2-yl)amino)-3-methylphenyl)acrylamide]: the IC50 at wild type FGFR-4 (400 uM ATP, 90 minutes, 25 C) was greater than 1 µM; on wild type FGFR-1, greater than 1 µM. Further, the “Ratio FGFR1/FGFR4” value at wild type FGFR-4 is “E (the ratio is >10 and <50)”.
As to `C=CC(=O)Nc1cccc(C)c1Nc1ncc2cc(-c3c(Cl)c(OC)cc(OC)c3Cl)cc(F)c2n1` [COMPOUND 34, N-(2-((6-(2,6-dichloro-3,5-dimethoxyphenyl)-8-fluoroquinazolin-2-yl)amino)-3-methylphenyl)acrylamide], the IC50 in assay [1] was 0.001 to 0.01 µM; on wild type FGFR-4 it was less than 0.01 µM.
Consider `C=CC(=O)N(C)c1ncc2cc(-c3cc(OC)cc(OC)c3)ccc2n1` [COMPOUND 1], for which the 50% inhibitory concentration (IC50) on wild type FGFR-4 (400 uM ATP, 90 minutes, 25 C) was 0.1 to 1 µM; on wild type FGFR-1 it was greater than 1 µM. Further, the “Ratio FGFR1/FGFR4” value at wild type FGFR-4 was “C (the ratio is ≥100 and <200)”.
Regarding `C=CC(=O)Nc1cccc(C)c1Oc1ncc2cc(-c3c(Cl)c(OC)cc(OC)c3Cl)ccc2n1` [COMPOUND 25A], the “Ratio FGFR1/FGFR4” value on wild type FGFR-4 is “D (the ratio is ≥50 and <100)”. The IC50 at wild type FGFR-1 is greater than 1 µM.
On to `C=CC(=O)Nc1ccccc1Nc1cc2nc(NC(=O)NC(C)(C)C)c(-c3cc(OC)cc(OC)c3)cc2cn1` [COMPOUND 44], for which the “Ratio FGFR1/FGFR4” value at wild type FGFR-4 was “E (the ratio is >10 and <50)”. Further, the IC50 on wild type FGFR-1 was greater than 1 µM.
As for `C=CC(=O)Nc1ccccc1-c1ccn2c(-c3cc(NC(=O)NCC(F)(F)F)cc(OC(C)C)c3)cnc2c1` [COMPOUND 38, N-(2-(3-(3-isopropoxy-5-(3-(2,2,2-trifluoroethyl)ureido)phenyl)imidazo[1,2-a]pyridin-7-yl)phenyl)acrylamide], in assay [1], the IC50 is 0.01 to 0.1 µM. Moreover, on wild type FGFR-4, the “Ratio FGFR1/FGFR4” value was “E (the ratio is >10 and <50)”.
`C=CC(=O)Nc1cccc(C)c1Nc1ncc2cc(-c3c(Cl)cccc3Cl)ccc2n1` [COMPOUND 13]: the “Ratio FGFR1/FGFR4” value on wild type FGFR-4 was “D (the ratio is ≥50 and <100)”. In addition, the IC50 at wild type FGFR-1 was greater than 1 µM.
For the compound `C=CC(=O)Nc1cc(Cl)cc(C)c1Nc1ncc2cc(-c3c(Cl)c(OC)cc(OC)c3Cl)ccc2n1` [COMPOUND 49], the “Ratio FGFR1/FGFR4” value at wild type FGFR-4 is on record as “A (the ratio is >500)”. Moreover, the concentration for half-maximal inhibition (IC50) at wild type FGFR-1 was greater than 1 µM.
Consider `C=CC(=O)Nc1cccc(Cl)c1Nc1ncc2cc(-c3cc(C(N)=O)ccc3C)ccc2n1` [COMPOUND 17], for which, at wild type FGFR-4, the “Ratio FGFR1/FGFR4” value is “B (the ratio is ≥200 and <500)”. Moreover, at wild type FGFR-1, the IC50 is greater than 1 µM.
For `C=CC(=O)Nc1cc(F)cc(C)c1Nc1ncc2cc(-c3c(Cl)c(OC)cc(OC)c3Cl)ccc2n1` [COMPOUND 32], the IC50 was less than 0.01 µM at wild type FGFR-4 (400 uM ATP, 90 minutes, 25 C) and greater than 1 µM on wild type FGFR-1. Besides, at wild type FGFR-4, the “Ratio FGFR1/FGFR4” value was “C (the ratio is ≥100 and <200)”.
`C=CC(=O)N(C)c1ncc2cc(-c3c(Cl)c(OC)cc(OC)c3Cl)ccc2n1` [COMPOUND 7]: the IC50 on wild type FGFR-4 (400 uM ATP, 90 minutes, 25 C) was less than 0.01 µM; on wild type FGFR-1, greater than 1 µM. Besides, on wild type FGFR-4, the “Ratio FGFR1/FGFR4” value was “A (the ratio is >500)”.
As for `C=CC(=O)Nc1cccc(C)c1Nc1ncc2cc(-c3c(Cl)c(OC)cc(OC)c3Cl)cnc2n1` [COMPOUND 26, N-(2-((6-(2,6-dichloro-3,5-dimethoxyphenyl)pyrido[2,3-d]pyrimidin-2-yl)amino)-3-methylphenyl)acrylamide], the half-inhibitory concentration (IC50) is 0.001 to 0.01 µM in assay [1] and less than 0.01 µM on wild type FGFR-4 (400 uM ATP, 90 minutes, 25 C). The “Ratio FGFR1/FGFR4” value on wild type FGFR-4 is listed as “A (the ratio is >500)”.
Consider `C=CC(=O)Nc1cccc(C)c1Nc1ncc(C#Cc2cc(OC)cc(OC)c2)cn1` [COMPOUND 6, N-(2-((5-((3,5-dimethoxyphenyl)ethynyl)pyrimidin-2-yl)amino)-3-methylphenyl) acrylamide], for which, at wild type FGFR-1, the IC50 is greater than 1 µM.
`C=CC(=O)Nc1cccc(F)c1Nc1cc2c(cn1)cc(-c1c(Cl)c(OC)cc(OC)c1Cl)c(=O)n2C` [COMPOUND 46]: the half-maximal inhibitory concentration (IC50) in assay [1] is less than 0.001 µM; on wild type FGFR-4 (400 uM ATP, 90 minutes, 25 C), less than 0.01 µM. Also, the “Ratio FGFR1/FGFR4” value at wild type FGFR-4 was “E (the ratio is >10 and <50)”.
Take `C=CC(=O)N(C)c1ncc2cc(-c3c(Cl)cccc3Cl)ccc2n1` [COMPOUND 2]: at wild type FGFR-4, the “Ratio FGFR1/FGFR4” value was “D (the ratio is ≥50 and <100)”. Moreover, the IC50 at wild type FGFR-1 was greater than 1 µM.
As to `C=CC(=O)Nc1cccc(C)c1Nc1ncc2cc(-c3c(Cl)c(OC)cc(OC)c3Cl)c(=O)n(C)c2n1` [COMPOUND 43, N-(2-((6-(2,6-dichloro-3,5-dimethoxyphenyl)-8-methyl-7-oxo-7,8-dihydropyrido[2,3-d]pyrimidin-2-yl)amino)-3-methylphenyl)acrylamide], the IC50 in assay [1] is less than 0.001 µM.
Turning to `C=CC(=O)Nc1ccccc1Nc1ncc(Cl)c(N2CCN(C(=O)Nc3cccc(C(F)(F)F)c3)CC2)n1` [COMPOUND 50, 4-(2-((2-acrylamidophenyl)amino)-5-chloropyrimidin-4-yl)-N-(3-(trifluoromethyl)phenyl)piperazine-1-carboxamide], the IC50 on wild type FGFR-1 is greater than 1 µM.
In the case of `C=CC(=O)Nc1cc(C)cc(C)c1Nc1ncc2cc(-c3c(Cl)c(OC)cc(OC)c3Cl)ccc2n1` [COMPOUND 28], at wild type FGFR-1, the IC50 was greater than 1 µM.
As to `C=CC(=O)Nc1ccccc1Nc1ncc(C)c(N2CCN(C(=O)Nc3ccc(C#N)cc3)CC2)n1` [COMPOUND 23], the 50% inhibitory concentration (IC50) on wild type FGFR-4 (400 uM ATP, 90 minutes, 25 C) was 0.1 to 1 µM; at wild type FGFR-1, greater than 1 µM. Besides, the “Ratio FGFR1/FGFR4” value on wild type FGFR-4 is listed as “A (the ratio is >500)”.
For `C=CC(=O)Nc1cccc(F)c1Nc1ncc2cc(-c3c(Cl)c(OC)cc(OC)c3Cl)ccc2n1` [COMPOUND 51] the same measures were 0.01 to 0.1 µM, greater than 1 µM and “F (the ratio of [IC50 for FGFR1]/[IC50 for FGFR4] is less than 10)”.
`C=CC(=O)Nc1cccc(C)c1Nc1ncc2cc(-c3cc(C(N)=O)ccc3F)ccc2n1` [COMPOUND 9]: the “Ratio FGFR1/FGFR4” value at wild type FGFR-4 was “D (the ratio is ≥50 and <100)”. Also, the IC50 at wild type FGFR-1 is greater than 1 µM.
`C=CC(=O)N(C)c1ncc2c(n1)N(C)C(=O)N(c1cc(OC)cc(OC)c1)C2` [COMPOUND 5]: at wild type FGFR-4, the “Ratio FGFR1/FGFR4” value is “A (the ratio is >500)”. Also, the concentration for half-maximal inhibition (IC50) on wild type FGFR-1 was greater than 1 µM.
